Assays:
Format in all cases: biochemical
[1] = biological target: KRAS-G12C (C51S/C80L/C118S) (Homo sapiens, UniProt P01116, C118S/C51S/C80L/G12C); assay: SOS-catalyzed nucleotide exchange assay (Procedure A, TR-FRET), KRAS-G12C; settings: nucleotide exchange, Procedure A; read-out: KRAS G12C GNE IC50
Method in brief: (§1)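 RAS (G12C carries C51S/C80L/C118S) loaded with Bodipy-GDP, complexed with Tb-streptavidin; cpd 60 min RT; + SOS/3 mM GTP. G12C 3/40 nM, WT 1/40, NRAS 1.25/40 nM RAS/SOS, 60 min; G12V 1.25/160 nM, 90 min. Normalized to DMSO and saturating inhibitor; 4PL fit.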

NRAS = NRAS (Homo sapiens, UniProt P01111); assay: SOS-catalyzed nucleotide exchange assay (Procedure A, TR-FRET), NRAS; settings: read-out: NRAS GNE IC50
Text: Procedure for SOS-Catalyzed Nucleotide Exchange Assay for KRAS-WT, G12C/D/V, G13D, HRAS, and NRAS (Procedure A)
Recombinant KRAS-G12C protein used in this assay has an additional triple mutation (C51S/C80L/C118S). Whereas KRAS-WT, G12D/V, G13D, HRAS and NRAS are in context of their WT protein sequence background. Specifically, the SOS-catalyzed nucleotide exchange assay utilizes a preformed TR-FRET complex containing a specific biotinylated RAS protein (KRAS-WT, G12C/V/D, G13D, HRAS, NRAS; described above) with Bodipy-GDP, and Terbium-streptavidin. Compounds are preincubated with this complex for 60 minutes. Subsequently, recombinant human SOS protein and unlabeled GTP are added to initiate the exchange reaction. Small molecule inhibitors stabilize the Bodipy-GDP complex whereas the untreated protein rapidly exchanges Bodipy-GDP for unlabeled GTP resulting in reduced TR-FRET signal.
To assemble the preformed TR-FRET complexes, each biotinylated RAS protein is diluted to 2 μM in an EDTA Buffer (20 mM HEPES pH 7.5, 50 mM sodium chloride, 10 mM EDTA, and 0.01% Tween) and incubated at room temperature for one hour. This mixture is then further diluted to 90 nM in an Assay Buffer (20 mM HEPES pH 7.5, 150 mM sodium chloride, 10 mM magnesium chloride, and 0.005% Tween) containing 15 nM of Terbium-Streptavidin (Invitrogen, catalog #PV3577) and 900 nM of Bodipy-GDP (Invitrogen, catalog #G22360) and incubated at room temperature for six hours. It should be noted that this preformed TR-FRET complex for each of the RAS protein were made ahead of time, aliquoted and stored at −80° C. until the day of the experiment.
Each test compound (10 mM stock in DMSO) is diluted in DMSO to make a final-10-point, 3-fold dilution and is acoustically dispensed into a 384-well assay plate (Corning, catalog #3820) using an Echo 550 (Labcyte). Each well of the assay plate receives 3 μL of a specific 3×RAS preformed TR-FRET complex and 3 μL of Assay Buffer and is incubated at room temperature for 60 minutes (preincubation time). Each well then receives 3 μL of 3×recombinant human SOS protein and GTP (Sigma, G8877) in Assay Buffer and is incubated at room temperature for 30 minutes (G13D), 60 minutes (KRAS WT/G12C/D, H/NRAS) or 90 minutes for G12V. […]
The time-resolved fluorescence resonance energy transfer (TR-FRET) signal is measured on an Envision (PerkinElmer) plate reader: Excitation filter=340 nm; emission 1=495 nm; emission2=520 nm; dichroic mirror=D400/D505; delay time=[…]. The signal of each well is determined as the ratio of the emission at 520 nm to that at 495 nm. Percent effect of each well is determined after normalization to control wells containing DMSO (no effect) or a saturating concentration of inhibitor (max effect). […]

HRAS = HRAS (Homo sapiens, UniProt P01112); assay: SOS-catalyzed nucleotide exchange assay (Procedure A, TR-FRET), HRAS; settings: read-out: HRAS GNE IC50
Method in brief: (§2)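 Signal ratio (520/495 nm, excitation 340 nm) reports Bodipy-GDP retention on biotinylated RAS after SOS-catalyzed exchange with 3 mM GTP. SOS was 40 nM, except 160 nM for G12V. Room-temperature exchange lasted 60 min (90 min for G12V), following a 60 min compound preincubation.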

KRAS-G12D = KRAS-G12D (Homo sapiens, UniProt P01116, G12D); assay: SOS-catalyzed nucleotide exchange assay (Procedure A, TR-FRET), KRAS-G12D; settings: nucleotide exchange, read-out: KRAS G12D GNE IC50
Method in brief: as §2

KRAS-G12V = KRAS-G12V (Homo sapiens, UniProt P01116, G12V); assay: SOS-catalyzed nucleotide exchange assay (Procedure A, TR-FRET), KRAS-G12V; settings: nucleotide exchange, read-out: KRAS G12V GNE IC50
Method in brief: as §1

Sequence of NRAS (P01111 with tags, fused parts or gaps): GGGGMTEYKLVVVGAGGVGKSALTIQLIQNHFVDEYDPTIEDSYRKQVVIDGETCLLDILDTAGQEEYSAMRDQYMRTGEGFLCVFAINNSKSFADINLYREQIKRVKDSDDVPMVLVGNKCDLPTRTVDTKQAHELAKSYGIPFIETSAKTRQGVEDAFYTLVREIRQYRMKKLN
Sequence of KRAS-G12V (P01116 with tags, fused parts or gaps isoform P01116-2 G12V): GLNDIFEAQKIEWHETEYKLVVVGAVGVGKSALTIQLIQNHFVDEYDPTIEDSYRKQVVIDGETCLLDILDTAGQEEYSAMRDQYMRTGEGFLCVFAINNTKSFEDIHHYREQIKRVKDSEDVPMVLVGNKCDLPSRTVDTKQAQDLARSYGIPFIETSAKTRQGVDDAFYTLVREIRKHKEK
Sequence of HRAS (P01112 with tags, fused parts or gaps): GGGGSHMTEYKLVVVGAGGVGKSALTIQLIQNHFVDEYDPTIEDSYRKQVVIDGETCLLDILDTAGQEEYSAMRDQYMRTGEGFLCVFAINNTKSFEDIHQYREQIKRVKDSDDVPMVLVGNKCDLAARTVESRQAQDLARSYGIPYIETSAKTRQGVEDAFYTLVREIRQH
Sequence of KRAS-G12D (P01116 with tags, fused parts or gaps isoform P01116-2 G12D): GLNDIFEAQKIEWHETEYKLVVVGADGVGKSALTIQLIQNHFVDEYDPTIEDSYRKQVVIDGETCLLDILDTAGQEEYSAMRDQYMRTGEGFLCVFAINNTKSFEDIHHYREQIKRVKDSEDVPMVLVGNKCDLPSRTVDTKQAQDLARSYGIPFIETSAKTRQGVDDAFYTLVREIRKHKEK
Sequence of KRAS-G12C (C51S/C80L/C118S) (P01116 with tags, fused parts or gaps isoform P01116-2 G12C/C51S/C80L/C118S): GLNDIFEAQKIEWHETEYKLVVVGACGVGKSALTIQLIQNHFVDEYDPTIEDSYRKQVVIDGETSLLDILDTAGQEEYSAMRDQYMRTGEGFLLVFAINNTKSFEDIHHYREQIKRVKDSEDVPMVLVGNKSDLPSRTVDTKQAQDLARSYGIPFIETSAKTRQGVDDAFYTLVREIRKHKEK

C#Cc1c(F)ccc2cc(O)cc(-c3nccc4c5c(N6CCOC[C@@](C)(O)C6)nc(OC[C@@]67CCCN6C[C@H](F)C7)nc5n(C)c34)c12 [Ex-18, (S)-4-(8-(8-ethynyl-7-fluoro-3-hydroxynaphthalen-1-yl)-2-(((2R,7aS)-2-fluorotetrahydro-1H-pyrrolizin-7a(5H)-yl)methoxy)-9-methyl-9H-pyrido[4′,3′:4,5]pyrrolo[2,3-d]pyrimidin-4-yl)-6-methyl-1,4-oxazepan-6-ol]
IC50 [1]: 10.5 nM
IC50 (NRAS): 8820 nM
IC50 (HRAS): 1820 nM
IC50 (KRAS-G12D): 1.15 nM
IC50 (KRAS-G12V): 3.85 nM

— patent US20260176289A1, “SMALL MOLECULE INHIBITORS OF KRAS PROTEINS” (Merck Sharp & Dohme LLC, priority 2022, published 2026)
